Source: ChEMBL document CHEMBL1141004, “N-((8-hydroxy-5-substituted-quinolin-7-yl)(phenyl)methyl)-2-phenyloxy/amino-acetamide inhibitors of ADAMTS-5 (Aggrecanase-2)” (Bioorg Med Chem Lett, 2008)
pIC50: −log10 of the molar value.

How the values were obtained:
[1] = Metabolic stability in rat liver microsomes assessed as half life; format: ADME, Microsome
[2] = target: T1, A disintegrin and metalloproteinase with thrombospondin motifs 5 (Homo sapiens, UniProt Q9UNA0); assay: Inhibition of ADAMTS5 by FRET assay
T1 sequence (Q9UNA0 whole entry): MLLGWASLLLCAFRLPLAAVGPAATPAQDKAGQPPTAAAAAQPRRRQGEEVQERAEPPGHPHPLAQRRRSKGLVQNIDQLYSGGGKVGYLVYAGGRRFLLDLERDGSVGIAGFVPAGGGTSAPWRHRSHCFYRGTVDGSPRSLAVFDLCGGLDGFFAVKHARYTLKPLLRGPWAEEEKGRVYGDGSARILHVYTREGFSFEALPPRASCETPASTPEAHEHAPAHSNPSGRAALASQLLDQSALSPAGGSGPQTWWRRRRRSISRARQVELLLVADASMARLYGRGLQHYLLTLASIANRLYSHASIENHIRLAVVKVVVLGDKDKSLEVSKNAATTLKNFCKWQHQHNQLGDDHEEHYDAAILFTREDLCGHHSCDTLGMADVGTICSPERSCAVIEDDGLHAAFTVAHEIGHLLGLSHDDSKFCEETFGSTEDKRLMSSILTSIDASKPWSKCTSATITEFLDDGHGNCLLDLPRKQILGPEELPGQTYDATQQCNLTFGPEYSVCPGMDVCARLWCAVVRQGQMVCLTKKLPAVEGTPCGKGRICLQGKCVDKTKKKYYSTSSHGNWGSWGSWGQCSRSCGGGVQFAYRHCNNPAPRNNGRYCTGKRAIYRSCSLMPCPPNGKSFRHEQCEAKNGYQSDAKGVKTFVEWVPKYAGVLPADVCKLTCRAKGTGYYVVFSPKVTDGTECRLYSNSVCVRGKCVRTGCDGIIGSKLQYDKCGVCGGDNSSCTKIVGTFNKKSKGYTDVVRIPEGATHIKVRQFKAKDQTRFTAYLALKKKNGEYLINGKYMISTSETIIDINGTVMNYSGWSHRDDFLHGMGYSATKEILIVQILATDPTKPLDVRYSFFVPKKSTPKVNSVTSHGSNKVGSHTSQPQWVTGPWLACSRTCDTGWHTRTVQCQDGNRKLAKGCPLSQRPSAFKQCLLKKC

[3] = target: Cytochrome P450 3A4 (Homo sapiens, UniProt P08684); assay: Inhibition of CYP3A4 at 30 uM by FRET assay; format: ADME
Sequence of Cytochrome P450 3A4 (P08684 whole entry): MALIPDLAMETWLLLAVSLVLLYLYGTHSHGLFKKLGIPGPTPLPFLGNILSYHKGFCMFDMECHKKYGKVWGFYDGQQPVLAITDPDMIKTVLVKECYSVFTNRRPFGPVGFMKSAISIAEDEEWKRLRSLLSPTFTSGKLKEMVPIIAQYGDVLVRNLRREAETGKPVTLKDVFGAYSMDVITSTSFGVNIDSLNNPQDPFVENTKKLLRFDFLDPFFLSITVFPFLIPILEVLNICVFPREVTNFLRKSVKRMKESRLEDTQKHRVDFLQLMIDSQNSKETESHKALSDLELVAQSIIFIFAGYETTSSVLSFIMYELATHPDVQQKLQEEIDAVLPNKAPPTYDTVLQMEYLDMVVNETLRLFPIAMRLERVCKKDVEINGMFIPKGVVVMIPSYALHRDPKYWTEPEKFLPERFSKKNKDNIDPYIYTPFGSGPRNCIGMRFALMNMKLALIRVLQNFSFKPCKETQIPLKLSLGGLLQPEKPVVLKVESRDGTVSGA

## COc1ccc(C(NC(=O)COc2ccc(Cl)c(C)c2)c2cc(Cl)c3cccnc3c2O)cc1 (stereo unspecified)
[1]
  half-life: 9 min
[2]
  pIC50: < 5.00
[3]
  inhibition (INH): 25%

## Cc1cc(OCC(=O)NC(c2cccc([N+](=O)[O-])c2)c2cc(Cl)c3cccnc3c2O)ccc1Cl (stereo unspecified)
[1]
  half-life: 30 min
[2]
  pIC50: < 5.00
[3]
  inhibition (INH): 19%
